In patent publication US9073853B2, “Cycloalkane carboxylic acid derivatives as CXCR3 receptor antagonists” (Sanofi, priority 2011, dated 2015) one finds IC50 data, which are given here for ten compounds.

human CXCR3-A receptor, sequence (P49682 whole entry): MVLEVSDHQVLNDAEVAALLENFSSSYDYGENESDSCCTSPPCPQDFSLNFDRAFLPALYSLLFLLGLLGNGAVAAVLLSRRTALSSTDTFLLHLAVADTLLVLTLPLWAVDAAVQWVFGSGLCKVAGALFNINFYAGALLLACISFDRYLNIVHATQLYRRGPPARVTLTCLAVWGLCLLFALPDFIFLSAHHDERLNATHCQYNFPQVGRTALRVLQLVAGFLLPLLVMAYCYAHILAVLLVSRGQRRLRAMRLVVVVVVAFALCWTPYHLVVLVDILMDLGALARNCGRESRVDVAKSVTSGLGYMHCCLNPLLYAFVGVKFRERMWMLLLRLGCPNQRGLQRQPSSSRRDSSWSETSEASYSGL

The assay concerns the target human CXCR3-A receptor (Homo sapiens (Human), UniProt P49682). Nature of the assay: 125I-CXCL10 competition radioligand binding assay. The settings on record: displacement of 125I-CXCL10 from membranes of CHO cells expressing human recombinant CXCR3-A. The procedure: IC50 values were determined for the test compounds and used to explore the structure-activity relationships (SAR). […] This cell line was registered in Sanofi-Aventis cell line bank. […] Cell suspension was diluted with PBS and cells were collected with centrifugation at 230 g for 10 minutes at 10° C. with a Juan centrifuge. […] The supernatant was carefully collected and centrifuged at 100,000×g for 60 min at 4° with a Beckman Avanti J30 centrifuge. […] Protein concentration was determined with Bio-Rad protein assay (Cat No 500-0006). Membrane aliquots were stored at -80° C. […] The composition of the binding assay buffer was determined in a course of detailed optimization procedure. […] Binding reaction was initiated by adding of membranes (10-20 μg proteins, approximately 5×10^5 cell equivalents) to the reaction mixture. After 60 minutes of incubation at 25° C. the reaction was terminated by rapid filtration over GF/B glass fiber filters that were pre-soaked with 0.5% polyethyleneimine (Fluka Analytical, P3143) for 1 hour, using a Skatron cell harvester device. Filters then were washed with 8 ml of ice-cold wash buffer (modified binding buffer in which BSA was omitted and the concentration of NaCl was adjusted to 500 mM concentration). The radioactivity retained on the filters was measured by a Wizard 1470 Automatic Gamma counter. Test compounds were dissolved prior to the binding assay at a concentration of 10 mM in DMSO. Stock solutions were stored at -20° C. for not longer than 3 months. […] Before adding these solutions of test compound to the binding reaction mixture, an intermediate dilution procedure was applied, in which 30 μL of each solution sample was transferred into a dilution tube containing 970 μL of binding assay buffer. […] The IC50 values and Hill slopes for competition binding data were obtained using nonlinear four-parametric curve fitting method.
Background: Loss of bound radioactivity is the signal in a displacement assay; it reports binding, not function.
In general, IC50 refers to the concentration needed to halve the response being measured. Consider `COc1cc(CN(CC2CC(C(=O)O)C2)[C@H]2CCc3cc(Cl)ccc32)ccc1OCCN1C(=O)CCC1=O` (stereo partly drawn) [Example 158, 3-[(((S)-5-Chloro-indan-1-yl)-{4-[2-(2,5-dioxo-pyrrolidin-1-yl)-ethoxy]-3-methoxy-benzyl}-amino)-methyl]-cyclobutanecarboxylic acid], for which the half-maximal inhibitory concentration (IC50) was found to be 1060 nM.
For `Cc1ccc(C(C)N(Cc2ccc(OCCN3C(=O)CCC3=O)c(C)c2)C[C@H]2CC[C@H](C(=O)O)CC2)cc1` (stereo partly drawn) [Example 83, trans-4-{[{4-[2-(2,5-Dioxo-pyrrolidin-1-yl)-ethoxy]-3-methyl-benzyl}-(1-p-tolyl-ethyl)-amino]-methyl}-cyclohexanecarboxylic acid] the value was 146 nM; for `CCOC(=O)[C@@H]1C[C@H]1CN(Cc1ccc(OCCN2C(=O)CCC2=O)c(OC)c1)C(C)c1ccc2c(c1)CCO2` (stereo partly drawn) [Example 111, (1R,2R)-2-[([1-(2,3-Dihydro-benzofuran-5-yl)-ethyl]-{4-[2-(2,5-dioxo-pyrrolidin-1-yl)-ethoxy]-3-methoxy-benzyl}-amino)-methyl]-cyclopropanecarboxylic acid ethyl ester], 646 nM.
Then `COc1cc(CN(C[C@@H]2CC[C@H](C(=O)O)C2)[C@@H](C)c2ccc3c(c2)CCO3)ccc1OCCN1C(=O)CCC1=O` [Example 106, (1S,3R)-3-[([(S)-1-(2,3-Dihydro-benzofuran-5-yl)-ethyl]-{4-[2-(2,5-dioxo-pyrrolidin-1-yl)-ethoxy]-3-methoxy-benzyl}-amino)-methyl]-cyclopentanecarboxylic acid], with 144 nM.
Then `Cc1cc(CN(C[C@H]2CC[C@H](C(=O)O)CC2)[C@@H](C)c2ccc(Cl)cc2)ccc1OCCN1C(=O)CN(C)C1=O` [Example 39, trans-4-[([(S)-1-(4-Chloro-phenyl)-ethyl]-{3-methyl-4-[2-(3-methyl-2,5-dioxo-imidazolidin-1-yl)-ethoxy]-benzyl}-amino)-methyl]-cyclohexanecarboxylic acid], with 99 nM.
With `Cc1cc(CN(C[C@H]2CC[C@H](C(=O)O)CC2)C(C)c2ccc(Cl)c(Cl)c2)ccc1OCCN1C(=O)CCC1=O` (stereo partly drawn) [Example 78, trans-4-[([1-(3,4-Dichloro-phenyl)-ethyl]-{4-[2-(2,5-dioxo-pyrrolidin-1-yl)-ethoxy]-3-methyl-benzyl}-amino)-methyl]-cyclohexanecarboxylic acid], the IC50 was 270 nM.
For `Cc1cc(CN(C[C@H]2CC[C@H](C(=O)O)CC2)[C@@H](C)c2ccc(Cl)cc2)ccc1CCCN1C(=O)CCC1=O` [Example 54, trans-4-[([(S)-1-(4-Chloro-phenyl)-ethyl]-{4-[3-(2,5-dioxo-pyrrolidin-1-yl)-propyl]-3-methyl-benzyl}-amino)-methyl]-cyclohexanecarboxylic acid] the value was 482 nM.
For `COc1cc(CN(C[C@H]2CC[C@H](C(=O)O)CC2)[C@@H](C)c2ccc(Cl)cc2)ccc1OCCn1c(=O)ccn(C)c1=O` [Example 37, trans-4-[([(S)-1-(4-Chloro-phenyl)-ethyl]-{3-methoxy-4-[2-(3-methyl-2,6-dioxo-3,6-dihydro-2H-pyrimidin-1-yl)-ethoxy]-benzyl}-amino)-methyl]-cyclohexanecarboxylic acid] the value was 76 nM.
For `Cc1cc([C@H](C)N(Cc2ccc(OCCN3C(=O)CCC3=O)c(C)c2)[C@H]2C[C@@H](C(=O)O)C2)ccc1Cl` [Example 131, cis-3-([(S)-1-(4-Chloro-3-methyl-phenyl)-ethyl]-{4-[2-(2,5-dioxo-pyrrolidin-1-yl)-ethoxy]-3-methyl-benzyl}-amino)-cyclobutanecarboxylic acid] the value was 6500 nM.
Regarding `COc1cc(CN(C[C@H]2CC[C@H](C(=O)O)CC2)C2CCc3cc(Cl)ccc32)ccc1CCCN1C(=O)CCC1=O` (stereo partly drawn) [Example 44, trans-4-[((5-Chloro-indan-1-yl)-{4-[3-(2,5-dioxo-pyrrolidin-1-yl)-propyl]-3-methoxy-benzyl}-amino)-methyl]-cyclohexanecarboxylic acid], the IC50 amounted to 410 nM.
